Measured values taken from patent publication US5006535A, “Substituted heterocylic 4-aminoquinoline derivatives as gastric acid secretion inhibitors” (Smith Kline & French Laboratories Ltd., priority 1988, dated 1991).

Assays:
[1] = system: pentagastrin stimulated gastric acid secretion; test: Rat Lumen Perfused Stomach (pentagastrin stimulated gastric acid secretion); assay type: in vivo; conditions: for % inhibition of pentagastrin stimulated gastric acid secretion: i.v., 10 μmole/kg
From the text: B. Rat Lumen Perfused Stomach (pentagastrin stimulated gastric acid secretion).
Using a modification of the procedure described by Ghosh & Schild (Br. J. Pharmacology, 13, 54, 1958), the compounds of the following examples were found on i.v. administration at a concentration of 10 μmole/kg to cause an inhibition of pentagastrin stimulated gastric acid secretion as indicated in the following table. Results are given as % inhibition at 10 μmole/kg or ED50 (μM/kg): […]

H^+ K^+ ATPase = target: T1, H^+ K^+ ATPase (Sus scrofa, UniProt P19156); test: H^+ K^+ ATPase Activity (K^+ -stimulated ATPase activity in lyophilised gastric vesicles); assay type: biochemical; conditions: pig lyophilised gastric vesicles, pH 7.0, 37°, 30 minutes
T1 construct: Lyophilised gastric vesicles were prepared from pig fundic mucosa; from tissue; host or cells: pig fundic mucosa, lyophilised gastric vesicles
T1 sequence (P19156 2-1034 limits assumed): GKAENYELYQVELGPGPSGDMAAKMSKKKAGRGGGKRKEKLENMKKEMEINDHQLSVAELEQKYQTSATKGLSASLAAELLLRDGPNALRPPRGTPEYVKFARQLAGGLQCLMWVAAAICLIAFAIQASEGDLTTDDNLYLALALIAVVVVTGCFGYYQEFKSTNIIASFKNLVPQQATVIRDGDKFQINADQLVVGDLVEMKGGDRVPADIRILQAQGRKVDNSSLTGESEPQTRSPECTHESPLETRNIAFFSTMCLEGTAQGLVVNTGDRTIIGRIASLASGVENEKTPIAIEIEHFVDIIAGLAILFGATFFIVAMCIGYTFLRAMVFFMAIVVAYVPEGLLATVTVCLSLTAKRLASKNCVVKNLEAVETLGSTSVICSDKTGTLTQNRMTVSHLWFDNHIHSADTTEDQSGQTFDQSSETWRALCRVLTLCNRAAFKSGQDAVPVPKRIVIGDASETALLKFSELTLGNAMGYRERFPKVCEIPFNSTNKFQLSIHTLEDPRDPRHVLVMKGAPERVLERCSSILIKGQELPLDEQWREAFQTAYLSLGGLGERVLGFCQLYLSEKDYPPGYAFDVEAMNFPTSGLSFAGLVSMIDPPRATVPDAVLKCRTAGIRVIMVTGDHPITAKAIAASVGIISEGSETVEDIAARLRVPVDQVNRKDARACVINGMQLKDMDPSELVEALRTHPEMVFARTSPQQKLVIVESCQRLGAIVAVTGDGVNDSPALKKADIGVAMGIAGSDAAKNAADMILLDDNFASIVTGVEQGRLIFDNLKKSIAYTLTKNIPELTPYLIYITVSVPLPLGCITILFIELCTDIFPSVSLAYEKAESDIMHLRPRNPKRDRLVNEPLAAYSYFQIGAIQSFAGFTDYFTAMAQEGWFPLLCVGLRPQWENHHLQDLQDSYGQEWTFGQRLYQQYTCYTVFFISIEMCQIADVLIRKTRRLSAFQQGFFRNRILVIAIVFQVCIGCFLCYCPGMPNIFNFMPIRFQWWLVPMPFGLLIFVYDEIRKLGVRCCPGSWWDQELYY
T1 sequence (P18434 whole entry partner): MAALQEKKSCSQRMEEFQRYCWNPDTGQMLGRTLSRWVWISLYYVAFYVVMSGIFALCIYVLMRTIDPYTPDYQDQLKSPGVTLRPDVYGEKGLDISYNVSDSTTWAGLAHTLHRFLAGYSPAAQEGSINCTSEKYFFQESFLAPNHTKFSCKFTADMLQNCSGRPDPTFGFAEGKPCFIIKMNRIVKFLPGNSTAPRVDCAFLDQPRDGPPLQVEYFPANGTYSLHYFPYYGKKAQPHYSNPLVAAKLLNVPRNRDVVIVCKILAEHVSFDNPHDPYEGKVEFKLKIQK
Protocol: The effects of a single high concentration (100 μM) of a compound of structure (I) on K-stimulated ATPase activity in lyophilised gastric vesicles was determined. Preferred compounds of structure (I) were also tested over a range of concentrations to determine IC50 values.
Lyophilised gastric vesicles were prepared from pig fundic mucosa after the method of Keeling et. al. (Biochem. Pharmacol., 34, 2967, 1985).
K^+ -stimulated ATPase activity was determined at 37° in the presence of the following: 10 mM Pipes/Tris buffer pH 7.0, 2 mM MgSO4, 1 mM KCl, 2 mM Na2 ATP and 3-6 μg protein/ml lyophilised gastric vesicles. After incubation for 30 minutes, the inorganic phosphate hydrolysed from ATP was determined by the method of Yoda and Hokin (Biochem. Biophys. Res. Commun. 40, 880, 1970).
Compounds of structure (I) were dissolved in dimethylsulphoxide which up to the highest concentration used had no effect on K^+ -stimulated ATPase activity.
The effect of the highest concentration of each compound of structure (I) on the recovery of a standard amount of inorganic phosphate was also determined.

Row | IC50 (H^+ K^+ ATPase) [nM] | Compound | ED50 ([1]; iv, read-out: ED50, inhibition of pentagastrin stimulated gastric acid secretion) [µmol/kg] | % inhibition of pentagastrin stimulated gastric acid secretion [1] [%]
1 | 530 | CCOC(=O)c1cnc2c(OC)cccc2c1Nc1cscc1C [Example 1, Ethyl 8-methoxy-4-(4-methyl-3-thienylamino)quinoline 3-carboxylate] | 4.62 | –
2 | 1400 | CCCC(=O)c1cnc2c(OC)cccc2c1Nc1ccsc1CC [Example 2, 3-Butyryl-4-(2-ethyl-3-thienylamino)-8-methoxyquinoline] | – | 61
3 | – | CCCC(=O)c1cnc2c(OC)cccc2c1Nc1ccsc1C(=O)OC [Example 3] | – | 48
4 | 2300 | CCCC(=O)c1cnc2c(OC)cccc2c1Nc1sccc1C [Example 4, 3-Butyryl-4-(3-methyl-2-thienylamino)-8-methoxyquinoline] | – | 58
5 | 3400 | CCOC(=O)c1cnc2c(OC)cccc2c1Nc1cscc1OC [Example 5, Ethyl 8-methoxy-4-(4-methoxy-3-thienylamino)quinoline-3-carboxylate] | – | 41
